In patent US20090203800A1, “Cytostatic Composition” (priority 2008, published 2009):

What was measured:
Type in all cases: cell-based
Details in all cases: 5-FU 1.0 mg/ml
[1] = system: human tumor xenograft BXF 1218 (Bladder); test: clonogenic assay (tumor colony assay)
Protocol: (§1) In the clonogenic assay (=tumor colony assay, TCA), inhibition of colony formation of tumor stem cells growing in soft agar is examined. Tumor stem cells, which are responsible for growth, the metastatic and infiltrative potential of a tumor, are prepared directly from human tumor xenografts growing in nude mice.
(§2) Cytostatic was tested at 6 concentrations. The highest concentration tested was 0.004%, as shown below, which was the maximum allowed concentration of the vehicle in the test set as 100% of Cytostatic. IMDM supplemented with 10% v/v saline solution was also used as a control vehicle.
(§3) Solid human tumor xenografts growing subcutaneously in serial passages in thymus aplastic nude mice (NMRI nu/nu strain,) were removed under sterile conditions, mechanically disaggregated and subsequently incubated with an enzyme cocktail consisting of collagenase type IV (41 U/ml) (Sigma), DNase I (125 U/ml) (Roche), hyaluronidase type III (100 U/ml) (Sigma) and dispase II (1.0 U/ml) (Roche) in RPMI 1640-Medium (Life Technologies) at 37° C. for 45 minutes. Cells were passed through sieves of 200 μm and 50 μm mesh size and washed twice with sterile PBS-buffer. The percentage of viable cells was determined in a Neubauer-hemocytometer using trypan blue exclusion.
(§4) The clonogenic assay was performed in a 24-well format according to a modified two-layer soft agar assay introduced by Hamburger & Salmon. The bottom layer consisted of 0.2 ml/well IMDM (Life Technologies) (supplemented with 20% (v/v) fetal calf serum (Sigma), 0.01% (w/v) gentamicin (Life Technologies) and 0.75% (w/v) agar). 2×10^4 to 4×10^4 cells were added to 0.2 ml of the same culture medium supplemented with 0.4% (w/v) agar and plated in 24-multiwell dishes onto the bottom layer. The test compound was applied by continuous exposure (drug overlay) in 0.2 ml culture medium. Every dish included six untreated control wells and drug-treated groups in triplicate at 6 concentrations. Cultures were incubated at 37° C. and 7.5% CO2 in a humidified atmosphere for 6-18 days and monitored closely for colony growth using an inverted microscope. Within this period, in vitro tumor growth led to the formation of colonies with a diameter of >50 μm. At the time of maximum colony formation, counts were performed with an automatic image analysis system (OMNICON 3600, Biosys GmbH). 24 hours prior to evaluation, vital colonies were stained with a sterile aqueous solution of 2-(4-iodophenyl)-3-(4-nitrophenyl)-5-phenyltetrazolium chloride (1 mg/ml, 100 μl/well) (Sigma).
(§5) Drug effects were expressed by the percentage of colony formation, obtained by comparison of the mean number of colonies in the treated wells with the mean colony count of the untreated controls (relative colony count expressed by the test-versus-control value, T/C-value [%]):
(§6) IC50- and IC70-values, being the drug concentrations necessary to inhibit colony formation by 50% (T/C=50%) and 70% (T/C=30%), respectively, were determined by plotting compound concentration versus relative colony count. Mean IC50- and IC70-values were calculated according to the formula

[2] = system: human tumor xenograft CXF 1103 (Colon); test: clonogenic assay (tumor colony assay)
Protocol: as §1, §2, §3, §4, §5, §6

[3] = system: human tumor xenograft CXF 280 (Colon); test: clonogenic assay (tumor colony assay)
Protocol: as §1, §2, §3, §4, §5, §6

[4] = system: human tumor xenograft GXF 1172 (Stomach); test: clonogenic assay (tumor colony assay)
Protocol: as §1, §2, §3, §4, §5, §6

[5] = system: human tumor xenograft HNXF 536 (Head & neck); test: clonogenic assay (tumor colony assay)
Protocol: as §1, §2, §3, §4, §5, §6

[6] = system: human tumor xenograft LIXF 575 (Liver); test: clonogenic assay (tumor colony assay)
Protocol: as §1, §2, §3, §4, §5, §6

[7] = system: human tumor xenograft LXFA 289 (Lung, NSC); test: clonogenic assay (tumor colony assay)
Protocol: as §1, §2, §3, §4, §5, §6

[8] = system: human tumor xenograft LXFA 526 (Lung, NSC); test: clonogenic assay (tumor colony assay)
Protocol: as §1, §2, §3, §4, §5, §6

[9] = system: human tumor xenograft LXFL 1647 (Lung, NSC); test: clonogenic assay (tumor colony assay)
Protocol: as §1, §2, §3, §4, §5, §6

[10] = system: human tumor xenograft LXFL 529 (Lung, NSC); test: clonogenic assay (tumor colony assay)
Protocol: as §1, §2, §3, §4, §5, §6

[11] = system: human tumor xenograft LXFS 615 (Lung, SC); test: clonogenic assay (tumor colony assay)
Protocol: as §1, §2, §3, §4, §5, §6

[12] = system: human tumor xenograft LXFS 650 (Lung, SC); test: clonogenic assay (tumor colony assay)
Protocol: as §1, §2, §3, §4, §5, §6

[13] = system: human tumor xenograft MAXF 1322 (Breast); test: clonogenic assay (tumor colony assay)
Protocol: as §1, §2, §3, §4, §5, §6

[14] = system: human tumor xenograft MAXF 1384 (Breast); test: clonogenic assay (tumor colony assay)
Protocol: as §1, §2, §3, §4, §5, §6

[15] = system: human tumor xenograft MAXF 401 (Breast); test: clonogenic assay (tumor colony assay)
Protocol: as §1, §2, §3, §4, §5, §6

[16] = system: human tumor xenograft MEXF 1539 (Melanoma); test: clonogenic assay (tumor colony assay)
Protocol: as §1, §2, §3, §4, §5, §6

[17] = system: human tumor xenograft MEXF 514 (Melanoma); test: clonogenic assay (tumor colony assay)
Protocol: as §1, §2, §3, §4, §5, §6

[18] = system: human tumor xenograft MEXF 989 (Melanoma); test: clonogenic assay (tumor colony assay)
Protocol: as §1, §2, §3, §4, §5, §6

[19] = system: human tumor xenograft OVXF 550 (Ovary); test: clonogenic assay (tumor colony assay)
Protocol: as §1, §2, §3, §4, §5, §6

[20] = system: human tumor xenograft OVXF 899 (Ovary); test: clonogenic assay (tumor colony assay)
Protocol: as §1, §2, §3, §4, §5, §6

[21] = system: human tumor xenograft PAXF 736 (Pancreas); test: clonogenic assay (tumor colony assay)
Protocol: as §1, §2, §3, §4, §5, §6

[22] = system: human tumor xenograft PRXF DU145 (Prostate); test: clonogenic assay (tumor colony assay)
Protocol: as §1, §2, §3, §4, §5, §6

[23] = system: human tumor xenograft PRXF MRIH1579 (Prostate); test: clonogenic assay (tumor colony assay)
Protocol: as §1, §2, §3, §4, §5, §6

[24] = system: human tumor xenograft PXF 1118 (Pleuramesothelioma); test: clonogenic assay (tumor colony assay)
Protocol: as §1, §2, §3, §4, §5, §6

[25] = system: human tumor xenograft RXF 631 (Kidney); test: clonogenic assay (tumor colony assay)
Protocol: as §1, §2, §3, §4, §5, §6

[26] = system: human tumor xenograft RXF 944LX (Kidney); test: clonogenic assay (tumor colony assay)
Protocol: as §1, §2, §3, §4, §5, §6

[27] = system: human tumor xenograft SXF 627 (Sarcoma); test: clonogenic assay (tumor colony assay)
Protocol: as §1, §2, §3, §4, §5, §6

[28] = system: 27 human tumor xenografts; test: clonogenic assay, whole test panel
Protocol: The antitumor efficacy of cytostatic composition as described above was evaluated in 27 human tumor xenografts in vitro using a clonogenic assay. The tumor test panel comprised 1 to 4 models of 15 different human tumor types, which were bladder cancer, colon, gastric, head and neck, liver, non small cell lung (adeno and large cell), small cell lung, mammary, ovary, pancreatic, prostate and renal cancer as well as melanoma, pleuramesothelioma, and sarcoma. The cytostatic composition was studied at 6 concentrations ranging from 0.001% to 100.0%. Antitumor effects were recorded as inhibition of colony formation in relation to untreated controls (T/C-values).
In the clonogenic assay (=tumor colony assay, TCA), inhibition of colony formation of tumor stem cells growing in soft agar is examined. […]
The clonogenic assay was performed in a 24-well format according to a modified two-layer soft agar assay introduced by Hamburger & Salmon. […] Cultures were incubated at 37° C. and 7.5% CO2 in a humidified atmosphere for 6-18 days and monitored closely for colony growth using an inverted microscope. […]
with x the specific tumor model, and n the total number of tumor models studied. If an IC50- or IC70-value could not be determined within the examined dose range (because a compound was either too active or lacked activity), the lowest or highest concentration studied was used for the calculation. […]

- 5-FU control, T/C [%] [1]: 2%
- 5-FU control, T/C [%] class [1]: +++ (+++ (T/C ≦ 10))
- 5-FU control, T/C [%] [2]: 10%
- 5-FU control, T/C [%] class [2]: +++ (+++ (T/C ≦ 10))
- 5-FU control, T/C [%] [3]: 21%
- 5-FU control, T/C [%] class [3]: ++ (++ (10 < T/C < 30))
- 5-FU control, T/C [%] [4]: 15%
- 5-FU control, T/C [%] class [4]: ++ (++ (10 < T/C < 30))
- 5-FU control, T/C [%] [5]: 9%
- 5-FU control, T/C [%] class [5]: +++ (+++ (T/C ≦ 10))
- 5-FU control, T/C [%] [6]: 4%
- 5-FU control, T/C [%] class [6]: +++ (+++ (T/C ≦ 10))
- 5-FU control, T/C [%] [7]: 12%
- 5-FU control, T/C [%] class [7]: ++ (++ (10 < T/C < 30))
- 5-FU control, T/C [%] [8]: 2%
- 5-FU control, T/C [%] class [8]: +++ (+++ (T/C ≦ 10))
- 5-FU control, T/C [%] [9]: 5%
- 5-FU control, T/C [%] class [9]: +++ (+++ (T/C ≦ 10))
- 5-FU control, T/C [%] [10]: 0%
- 5-FU control, T/C [%] class [10]: +++ (+++ (T/C ≦ 10))
- 5-FU control, T/C [%] [11]: 14%
- 5-FU control, T/C [%] class [11]: ++ (++ (10 < T/C < 30))
- 5-FU control, T/C [%] [12]: 0%
- 5-FU control, T/C [%] class [12]: +++ (+++ (T/C ≦ 10))
- 5-FU control, T/C [%] [13]: 0%
- 5-FU control, T/C [%] class [13]: +++ (+++ (T/C ≦ 10))
- 5-FU control, T/C [%] [14]: 4%
- 5-FU control, T/C [%] class [14]: +++ (+++ (T/C ≦ 10))
- 5-FU control, T/C [%] [15]: 4%
- 5-FU control, T/C [%] class [15]: +++ (+++ (T/C ≦ 10))
- 5-FU control, T/C [%] [16]: 0%
- 5-FU control, T/C [%] class [16]: +++ (+++ (T/C ≦ 10))
- 5-FU control, T/C [%] [17]: 4%
- 5-FU control, T/C [%] class [17]: +++ (+++ (T/C ≦ 10))
- 5-FU control, T/C [%] [18]: 0%
- 5-FU control, T/C [%] class [18]: +++ (+++ (T/C ≦ 10))
- 5-FU control, T/C [%] [19]: 33%
- 5-FU control, T/C [%] class [19]: + (+ (30 ≦ T/C ≦ 50))
- 5-FU control, T/C [%] [20]: 31%
- 5-FU control, T/C [%] class [20]: + (+ (30 ≦ T/C ≦ 50))
- 5-FU control, T/C [%] [21]: 5%
- 5-FU control, T/C [%] class [21]: +++ (+++ (T/C ≦ 10))
- 5-FU control, T/C [%] [22]: 1%
- 5-FU control, T/C [%] class [22]: +++ (+++ (T/C ≦ 10))
- 5-FU control, T/C [%] [23]: 7%
- 5-FU control, T/C [%] class [23]: +++ (+++ (T/C ≦ 10))
- 5-FU control, T/C [%] [24]: 2%
- 5-FU control, T/C [%] class [24]: +++ (+++ (T/C ≦ 10))
- 5-FU control, T/C [%] [25]: 4%
- 5-FU control, T/C [%] class [25]: +++ (+++ (T/C ≦ 10))
- 5-FU control, T/C [%] [26]: 1%
- 5-FU control, T/C [%] class [26]: +++ (+++ (T/C ≦ 10))
- 5-FU control, T/C [%] [27]: 2%
- 5-FU control, T/C [%] class [27]: +++ (+++ (T/C ≦ 10))
Structure (SMILES): O=c1[nH]cc(F)c(=O)[nH]1 [5-FU, 5-fluorouracil]
- antitumor activity of positive control of growth inhibition [28]: good antitumor activity
